Reference: the supplement of paper PMC6045584
± gives the standard deviation of the averaged measurements.

Columns and labels:
[1] = compound: C[C@H](CN(C)C)Oc1nc(Nc2cc3cccc(Cl)c3cn2)cnc1C#N; experiment: surviving fraction relative to DMSO-only wells; higher = less growth inhibition; settings: exposure time: 5 days
Summary of the method: (§1)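 Log-phase tumour cell lines were seeded at 250–500 cells per well in 384-well plates. After 24 hours they were exposed continuously for five days to inhibitors at 0.5, 1, 5, 10, 50, 100, 500 and 1000 nM. Viability was read by CellTiter-Glo luminescence after 10 minutes at room temperature, and surviving fraction is luminescence normalised to the median of DMSO-only wells. Each line was screened three times and kept only if replicate Pearson r >0.7 and median Z' >0.3.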

CABOZANTINIB = compound: COc1cc2nccc(Oc3ccc(NC(=O)C4(C(=O)Nc5ccc(F)cc5)CC4)cc3)c2cc1OC [CABOZANTINIB]; experiment: as above; settings: exposure time: 5 days
Summary of the method: as §1

Test System | surviving fraction ([1]; 0.5 nM) | surviving fraction ([1]; 1 nM) | surviving fraction ([1]; 5 nM) | surviving fraction ([1]; 10 nM) | surviving fraction ([1]; 50 nM) | surviving fraction ([1]; 100 nM) | surviving fraction ([1]; 500 nM) | surviving fraction ([1]; 1000 nM) | surviving fraction (CABOZANTINIB; 0.5 nM) | surviving fraction (CABOZANTINIB; 1 nM) | surviving fraction (CABOZANTINIB; 5 nM) | surviving fraction (CABOZANTINIB; 10 nM) | surviving fraction (CABOZANTINIB; 50 nM) | surviving fraction (CABOZANTINIB; 100 nM) | surviving fraction (CABOZANTINIB; 500 nM) | surviving fraction (CABOZANTINIB; 1000 nM)
S68 BREAST | 0.922 ± 0.12 | 1.07 ± 0.076 | 1.15 ± 0.062 | 0.966 ± 0.065 | 0.874 ± 0.14 | 0.652 ± 0.052 | 0.153 ± 0.0038 | 0.114 ± 0.0055 | 1.05 ± 0.1 | 0.948 ± 0.075 | 0.937 ± 0.071 | 1.32 ± 0.15 | 1.2 ± 0.23 | 1.24 ± 0.41 | 0.986 ± 0.24 | 0.889 ± 0.23
HCC78 LUNG | 0.677 ± 0.09 | 0.908 ± 0.11 | 0.832 ± 0.17 | 0.984 ± 0.022 | 0.832 ± 0.15 | 0.919 ± 0.12 | 0.317 ± 0.1 | 0.131 ± 0.041 | 0.826 ± 0.047 | 0.884 ± 0.047 | 0.991 ± 0.044 | 0.608 ± 0.16 | 0.315 ± 0.049 | 0.281 ± 0.088 | 0.185 ± 0.023 | 0.221 ± 0.058
CASKI CERVIX | 0.839 ± 0.052 | 0.909 ± 0.086 | 0.959 ± 0.032 | 0.922 ± 0.02 | 1.009 ± 0.01 | 0.9417 ± 0.0087 | 0.217 ± 0.011 | 0.12 ± 0.01 | 0.969 ± 0.021 | 0.914 ± 0.05 | 0.942 ± 0.021 | 0.907 ± 0.063 | 0.959 ± 0.031 | 0.907 ± 0.021 | 0.953 ± 0.038 | 0.768 ± 0.027
CADOES1 SOFT TISSUE | 0.789 ± 0.054 | 0.94 ± 0.018 | 0.867 ± 0.069 | 0.894 ± 0.031 | 0.814 ± 0.14 | 0.726 ± 0.056 | 0.294 ± 0.048 | 0.148 ± 0.015 | 0.946 ± 0.15 | 0.895 ± 0.081 | 0.994 ± 0.054 | 0.914 ± 0.15 | 0.858 ± 0.16 | 0.877 ± 0.034 | 0.976 ± 0.056 | 0.878 ± 0.17
LNCAP PROSTATE | 0.913 ± 0.085 | 0.863 ± 0.11 | 0.863 ± 0.015 | 0.92 ± 0.05 | 0.85 ± 0.064 | 0.855 ± 0.041 | 0.549 ± 0.047 | 0.464 ± 0.036 | 0.622 ± 0.084 | 1.02 ± 0.041 | 0.925 ± 0.05 | 0.897 ± 0.1 | 0.936 ± 0.042 | 0.976 ± 0.057 | 0.766 ± 0.013 | 0.383 ± 0.023
HCC1806 BREAST | 1.14 ± 0.095 | 1.09 ± 0.062 | 1.25 ± 0.2 | 1.13 ± 0.055 | 0.991 ± 0.068 | 0.633 ± 0.069 | 0.0587 ± 0.008 | 0.0547 ± 0.0029 | 0.863 ± 0.075 | 1.06 ± 0.057 | 1.092 ± 0.0075 | 1.06 ± 0.073 | 1.19 ± 0.078 | 1.08 ± 0.12 | 1.08 ± 0.021 | 1.09 ± 0.13
MDAMB468 BREAST | 0.976 ± 0.074 | 1.01 ± 0.043 | 1.08 ± 0.035 | 1.071 ± 0.0092 | 1.03 ± 0.036 | 1.03 ± 0.041 | 0.54 ± 0.039 | 0.223 ± 0.017 | 1.04 ± 0.089 | 1.11 ± 0.044 | 1.05 ± 0.057 | 1.09 ± 0.017 | 1.13 ± 0.067 | 1.15 ± 0.07 | 1.05 ± 0.086 | 1.07 ± 0.092
JURKAT HAEMATOPOIETIC AND LYMPHOID TISSUE | 1.08 ± 0.028 | 1.07 ± 0.013 | 1.05 ± 0.015 | 1.01 ± 0.021 | 0.927 ± 0.038 | 0.948 ± 0.02 | 0.619 ± 0.029 | 0.103 ± 0.014 | 1.07 ± 0.015 | 1.03 ± 0.014 | 1.05 ± 0.042 | 1.05 ± 0.022 | 0.998 ± 0.036 | 0.985 ± 0.017 | 1.04 ± 0.021 | 0.972 ± 0.0044
KPD BONE | 1.04 ± 0.068 | 0.982 ± 0.083 | 1.03 ± 0.1 | 1.05 ± 0.11 | 1.06 ± 0.054 | 0.979 ± 0.025 | 0.4 ± 0.025 | 0.224 ± 0.028 | 0.914 ± 0.031 | 0.985 ± 0.02 | 1.1 ± 0.045 | 1.04 ± 0.028 | 1.05 ± 0.036 | 1.03 ± 0.045 | 0.997 ± 0.068 | 0.956 ± 0.047
MHM BONE | 1.02 ± 0.031 | 1.03 ± 0.012 | 1.04 ± 0.026 | 1.07 ± 0.06 | 1.031 ± 0.0078 | 1.05 ± 0.02 | 1.063 ± 0.0031 | 0.999 ± 0.018 | 1.02 ± 0.045 | 1.01 ± 0.037 | 1.02 ± 0.026 | 1.04 ± 0.043 | 1.044 ± 0.0055 | 0.99 ± 0.021 | 0.896 ± 0.022 | 0.915 ± 0.019
A549 LUNG | 1.04 ± 0.03 | 1.02 ± 0.02 | 1.02 ± 0.024 | 0.994 ± 0.018 | 1.09 ± 0.039 | 1.06 ± 0.039 | 0.967 ± 0.02 | 0.601 ± 0.027 | 1.03 ± 0.016 | 0.976 ± 0.028 | 0.977 ± 0.022 | 0.98 ± 0.012 | 1.01 ± 0.02 | 1.01 ± 0.03 | 0.994 ± 0.021 | 0.97 ± 0.029
SUM44 BREAST | 1.14 ± 0.37 | 1.16 ± 0.3 | 1.24 ± 0.33 | 1.29 ± 0.47 | 1.23 ± 0.4 | 0.918 ± 0.25 | 0.284 ± 0.056 | 0.268 ± 0.066 | 1.21 ± 0.32 | 1.18 ± 0.3 | 1.24 ± 0.24 | 1.21 ± 0.23 | 1.36 ± 0.4 | 1.3 ± 0.35 | 1.2 ± 0.33 | 1.27 ± 0.39
COLO320DM LARGE INTESTINE | 1.04 ± 0.17 | 1.07 ± 0.09 | 1.01 ± 0.069 | 1.13 ± 0.068 | 1.06 ± 0.066 | 0.896 ± 0.084 | 0.235 ± 0.027 | 0.154 ± 0.027 | 1.08 ± 0.12 | 1.07 ± 0.13 | 1.04 ± 0.13 | 1.11 ± 0.08 | 1.18 ± 0.069 | 1.23 ± 0.093 | 1.16 ± 0.049 | 1.04 ± 0.099
HU09 BONE | 1.05 ± 0.11 | 0.964 ± 0.017 | 1.02 ± 0.086 | 1.02 ± 0.092 | 1.07 ± 0.13 | 0.903 ± 0.12 | 0.437 ± 0.063 | 0.261 ± 0.054 | 0.945 ± 0.084 | 0.999 ± 0.11 | 0.978 ± 0.055 | 1.02 ± 0.13 | 0.885 ± 0.096 | 0.638 ± 0.06 | 0.452 ± 0.043 | 0.338 ± 0.034
SUM149 BREAST | 1.04 ± 0.091 | 1.02 ± 0.083 | 0.988 ± 0.086 | 1.07 ± 0.017 | 0.903 ± 0.07 | 0.836 ± 0.024 | 0.192 ± 0.0025 | 0.0843 ± 0.011 | 1.03 ± 0.054 | 0.979 ± 0.19 | 0.912 ± 0.061 | 0.997 ± 0.021 | 0.987 ± 0.12 | 0.96 ± 0.084 | 0.91 ± 0.15 | 0.924 ± 0.091
VCAP PROSTATE | 0.969 ± 0.098 | 1.03 ± 0.14 | 1.1 ± 0.11 | 1.08 ± 0.11 | 1.12 ± 0.033 | 1.01 ± 0.16 | 0.715 ± 0.12 | 0.35 ± 0.039 | 0.921 ± 0.16 | 1.01 ± 0.046 | 1.05 ± 0.037 | 0.996 ± 0.07 | 1.06 ± 0.043 | 1.026 ± 0.004 | 0.992 ± 0.065 | 0.871 ± 0.056
SNU475 LIVER | 0.989 ± 0.036 | 1.03 ± 0.019 | 1 ± 0.039 | 1.037 ± 0.005 | 1.02 ± 0.044 | 0.972 ± 0.04 | 0.968 ± 0.024 | 0.918 ± 0.024 | 1 ± 0.033 | 0.972 ± 0.049 | 0.987 ± 0.031 | 0.991 ± 0.053 | 1 ± 0.012 | 0.985 ± 0.048 | 0.923 ± 0.023 | 0.876 ± 0.021
DU4475 BREAST | 1 ± 0.29 | 0.794 ± 0.19 | 0.918 ± 0.04 | 0.753 ± 0.064 | 0.777 ± 0.2 | 1.18 ± 0.25 | 0.476 ± 0.076 | 0.337 ± 0.095 | 0.782 ± 0.12 | 0.874 ± 0.076 | 0.868 ± 0.053 | 0.93 ± 0.16 | 0.899 ± 0.19 | 0.781 ± 0.085 | 0.908 ± 0.096 | 1.03 ± 0.12
SG31 HEADNECK | 1.04 ± 0.091 | 1.08 ± 0.072 | 1.1 ± 0.28 | 1.07 ± 0.12 | 1.07 ± 0.16 | 1.07 ± 0.11 | 0.982 ± 0.14 | 0.967 ± 0.032 | 1.1 ± 0.21 | 1.07 ± 0.2 | 0.981 ± 0.073 | 0.97 ± 0.14 | 1.07 ± 0.24 | 0.97 ± 0.07 | 1.1 ± 0.067 | 1.11 ± 0.082
SKBR3 BREAST | 1.04 ± 0.066 | 0.967 ± 0.066 | 0.881 ± 0.058 | 0.843 ± 0.063 | 1.06 ± 0.061 | 0.91 ± 0.18 | 0.667 ± 0.08 | 0.344 ± 0.019 | 1.02 ± 0.1 | 0.954 ± 0.11 | 1.07 ± 0.083 | 0.973 ± 0.011 | 1.12 ± 0.11 | 1.06 ± 0.098 | 0.987 ± 0.077 | 0.973 ± 0.025
